These results are taken from publication PMC11995724, “Antibiotic target discovery by integrated phenotypic and activity-based profiling of electrophilic fragments” (Cell chemical biology, 2025).

Broadly, the viability is a read-out of living cells in per cent, often relative to untreated cells.

Where a name gives a salt, the structure may show the parent alone.

The data set can be described thus: in vitro. The settings on record: human, hek293t cells.
As to `Cc1ccc(S(=O)(=O)N2CCSSCC2)c(F)c1` [10-L09, 5-(2-fluoro-4-methylbenzenesulfonyl)-1,2,5-dithiazepane], the viability at 48 h, 25 µM stood at 92.2%.
As to `CCCn1c(N)c(C(=O)CCl)c(=O)[nH]c1=O` [10-L10, 6-amino-5-(2-chloroacetyl)-1-propyl-1,2,3,4-tetrahydropyrimidine-2,4-dione], the viability at 48 h, 25 µM was determined as 97.8%.
Under `COc1ccc(N2C(=O)C=CC2=O)c([N+](=O)[O-])c1` [10-L11, 1-(4-methoxy-2-nitrophenyl)-2,5-dihydro-1H-pyrrole-2,5-dione] stands 100%.
For the compound `COC(=O)Cc1ccc(C(=O)CCl)s1` [10-L12, methyl 2-[5-(2-chloroacetyl)thiophen-2-yl]acetate], the viability at 48 h, 25 µM was found to be 76.1%.
The result for `O=C(CCl)c1ccc(F)c(F)c1` [10-L13, 2-chloro-1-(3,4-difluorophenyl)ethan-1-one] reads 95.7%; that for `N#CC(C(=O)CCl)c1nncn1-c1ccccc1` (stereo not shown) [10-L14, 4-chloro-3-oxo-2-(4-phenyl-4H-1,2,4-triazol-3-yl)butanenitrile], 83.7%; that for `Cn1c(=O)c(C(=O)CCl)c(N)n(Cc2ccccc2)c1=O` [10-L15, 6-amino-1-benzyl-5-(2-chloroacetyl)-3-methyl-1,2,3,4-tetrahydropyrimidine-2,4-dione], 76.7%.
On to `O=C(CCl)c1ccc(Cl)c(Cl)c1` [10-L16, 2-chloro-1-(3,4-dichlorophenyl)ethan-1-one], for which the viability at 48 h, 25 µM is 31.3%.
For `O=C(CCl)c1cnc(N2CCCCC2)s1` [10-L17, 2-chloro-1-[2-(piperidin-1-yl)-1,3-thiazol-5-yl]ethan-1-one], the viability at 48 h, 25 µM amounted to 101%.
For the compound `Cc1cc(C(=O)CCl)c(C)n1-c1ccc(Cl)c(C(F)(F)F)c1` [10-L18, 2-chloro-1-{1-[4-chloro-3-(trifluoromethyl)phenyl]-2,5-dimethyl-1H-pyrrol-3-yl}ethan-1-one], the viability at 48 h, 25 µM came to 0.747%.
For `Cc1cc(F)c(C(=O)CCl)cc1F` [10-L19, 2-chloro-1-(2,5-difluoro-4-methylphenyl)ethan-1-one], the viability at 48 h, 25 µM was determined as 87%.
For the compound `Cc1cc(C(=O)CCl)c(C)n1-c1ccccc1` [10-L20, 2-chloro-1-(2,5-dimethyl-1-phenyl-1H-pyrrol-3-yl)ethan-1-one], the viability at 48 h, 25 µM came out at 1.11%.
Take `O=C(Cc1cccc(F)c1)N1CCSSCC1` [10-L21, 1-(1,2,5-dithiazepan-5-yl)-2-(3-fluorophenyl)ethan-1-one]: the viability at 48 h, 25 µM is 108%.
The result for `CC(=O)N1CCc2cc(C(=O)C(C)Cl)ccc21` (stereo not shown) [10-L22, 1-(1-acetyl-2,3-dihydro-1H-indol-5-yl)-2-chloropropan-1-one] reads 82.9%.
The result for `O=C1CCc2cc(C(=O)CCl)ccc2N1` [10-M03, 6-(2-chloroacetyl)-1,2,3,4-tetrahydroquinolin-2-one] reads 1.31%; that for `CC(=O)NCc1ccc(C(=O)C(C)Cl)s1` (stereo not shown) [10-M04, N-{[5-(2-chloropropanoyl)thiophen-2-yl]methyl}acetamide], 93.5%; that for `Cc1oc(C(N)=O)cc1C(=O)CCl` [10-M05, 4-(2-chloroacetyl)-5-methylfuran-2-carboxamide], 27.7%.
Take `CC(Cl)C(=O)c1ccc(NC(=O)C(C)(C)C)cc1` (stereo not shown) [10-M06, N-[4-(2-chloropropanoyl)phenyl]-2,2-dimethylpropanamide]: the viability at 48 h, 25 µM stood at 97.9%.
The result for `NC(=O)COc1ccc(C(=O)CCl)cc1` [10-M07, 2-[4-(2-chloroacetyl)phenoxy]acetamide] reads 38.6%.
Under `CC(Cl)C(=O)c1ccc2c(c1)CCC2` (stereo not shown) [10-M08, 2-chloro-1-(2,3-dihydro-1H-inden-5-yl)propan-1-one] stands 95.2%.
For `O=C(CCl)c1ccncc1` [10-M09, 2-chloro-1-(pyridin-4-yl)ethan-1-one hydrochloride], the viability at 48 h, 25 µM stood at 79.1%.
Consider `O=C1C=CC(=O)N1c1ccc(F)cc1` [10-M10, 1-(4-fluorophenyl)-2,5-dihydro-1H-pyrrole-2,5-dione], for which the viability at 48 h, 25 µM came out at 68.4%.
Under `Cc1coc(C)c1C(=O)CCl` [10-M11, 2-chloro-1-(2,4-dimethylfuran-3-yl)ethan-1-one] stands 72.9%; under `CC(C)Cn1c(N)c(C(=O)CCl)c(=O)n(C)c1=O` [10-M12, 6-amino-5-(2-chloroacetyl)-3-methyl-1-(2-methylpropyl)-1,2,3,4-tetrahydropyrimidine-2,4-dione], 97.1%; under `CC1CC(C(=O)CCl)CO1` (stereo not shown) [10-M13, 2-chloro-1-(5-methyloxolan-3-yl)ethan-1-one], 102%.
For the compound `Cc1cc(C(=O)CCl)c(C)n1Cc1ccccc1` [10-M14, 1-(1-benzyl-2,5-dimethyl-1H-pyrrol-3-yl)-2-chloroethan-1-one], the viability at 48 h, 25 µM came out at 78.4%.
For the compound `O=C(CCl)C1CC12CCOCC2` (stereo not shown) [10-M15, 2-chloro-1-{6-oxaspiro[2.5]octan-1-yl}ethan-1-one], the viability at 48 h, 25 µM stood at 108%.
For the compound `O=C(c1ccccc1)c1cc(Cl)ccc1N1C(=O)C=CC1=O` [10-M16, 1-(2-benzoyl-4-chlorophenyl)-2,5-dihydro-1H-pyrrole-2,5-dione], the viability at 48 h, 25 µM was determined as 48.7%.
Take `O=C(CCl)COc1ccc(Cl)cc1` [10-M17, 1-chloro-3-(4-chlorophenoxy)propan-2-one]: the viability at 48 h, 25 µM was 26.1%.
Under `Cc1nc(C)c(S(=O)(=O)N2CCSSCC2)s1` [10-M18, 5-[(2,4-dimethyl-1,3-thiazol-5-yl)sulfonyl]-1,2,5-dithiazepane] stands 90.2%; under `Cn1cc(C(=O)CCl)nn1` [10-M19, 2-chloro-1-(1-methyl-1H-1,2,3-triazol-4-yl)ethan-1-one], 68.1%; under `O=C1CCCc2cc(C(=O)CCl)ccc2N1` [10-M20, 7-(2-chloroacetyl)-2,3,4,5-tetrahydro-1H-1-benzazepin-2-one], 80.5%.
Under `Cc1oc(C(=O)O)cc1C(=O)CCl` [10-M21, 4-(2-chloroacetyl)-5-methylfuran-2-carboxylic acid] stands 91%; under `c1nc(N2CCSSCC2)c2c3c(sc2n1)CCCC3` [10-M22, 3-(1,2,5-dithiazepan-5-yl)-8-thia-4,6-diazatricyclo[7.4.0.0,2,7]trideca-1(9),2,4,6-tetraene], 78.3%.
On to `CC(=O)NCCc1ccc(C(=O)CCl)cc1` [10-N03, N-{2-[4-(2-chloroacetyl)phenyl]ethyl}acetamide], for which the viability at 48 h, 25 µM stood at 85.6%.
Take `Cn1c(-c2ccccc2)c(C(=O)CCl)c2ccccc21` [10-N04, 2-chloro-1-(1-methyl-2-phenyl-1H-indol-3-yl)ethan-1-one]: the viability at 48 h, 25 µM came out at 1.67%.
The result for `COc1ccc(C(=O)CCl)c2c1C(=O)CO2` [10-N05, 7-(2-chloroacetyl)-4-methoxy-2,3-dihydro-1-benzofuran-3-one] reads 92.2%; that for `CC(C)CC(=O)Nc1ccc(C(=O)CCl)cc1` [10-N06, N-[4-(2-chloroacetyl)phenyl]-3-methylbutanamide], 11.7%; that for `Cc1ccc(N2C(=O)C=CC2=O)c(C)c1` [10-N07, 1-(2,4-dimethylphenyl)-2,5-dihydro-1H-pyrrole-2,5-dione], 102%.
In the case of `Cc1nc(C)c(C(=O)CCl)o1` [10-N08, 2-chloro-1-(2,4-dimethyl-1,3-oxazol-5-yl)ethan-1-one], the viability at 48 h, 25 µM is 76.1%.
The result for `O=[N+]([O-])c1ccccc1S(=O)(=O)N1CCSSCC1` [10-N09, 5-(2-nitrobenzenesulfonyl)-1,2,5-dithiazepane] reads 117%.
As for `N#CC(C(=O)CCl)=C1NC2=C(CCc3ccccc32)S1` [10-N10, 4-chloro-2-{1H,2H,4H,5H-naphtho[1,2-d][1,3]thiazol-2-ylidene}-3-oxobutanenitrile], the viability at 48 h, 25 µM was 12.3%.
`CCOC(=O)C(C#N)=Cc1ccc(N2C(=O)C=CC2=O)cc1` [10-N11, ethyl 2-cyano-3-[4-(2,5-dioxo-2,5-dihydro-1H-pyrrol-1-yl)phenyl]prop-2-enoate]: the viability at 48 h, 25 µM was determined as 93.1%.
On to `COCCn1c(N)c(C(=O)CCl)c(=O)[nH]c1=O` [10-N12, 6-amino-5-(2-chloroacetyl)-1-(2-methoxyethyl)-1,2,3,4-tetrahydropyrimidine-2,4-dione], for which the viability at 48 h, 25 µM turned out to be 103%.
In the case of `Cc1ccc(N2C(=O)C=CC2=O)c([N+](=O)[O-])c1` [10-N13, 1-(4-methyl-2-nitrophenyl)-2,5-dihydro-1H-pyrrole-2,5-dione], the viability at 48 h, 25 µM is 133%.
Turning to `Cc1cc(C(=O)CCl)c(C)n1-c1ccc(S(N)(=O)=O)cc1` [10-N14, 4-[3-(2-chloroacetyl)-2,5-dimethyl-1H-pyrrol-1-yl]benzene-1-sulfonamide], the viability at 48 h, 25 µM amounted to 85.8%.
Take `COc1ccc(OC)c(N2C(=O)C=CC2=O)c1` [10-N15, 1-(2,5-dimethoxyphenyl)-2,5-dihydro-1H-pyrrole-2,5-dione]: the viability at 48 h, 25 µM was 110%.
With `Cc1cc(C(=O)CCl)c(C)n1CCc1ccc(Cl)cc1` [10-N16, 2-chloro-1-{1-[2-(4-chlorophenyl)ethyl]-2,5-dimethyl-1H-pyrrol-3-yl}ethan-1-one], the viability at 48 h, 25 µM turned out to be 0.625%.
The result for `Cc1cc(C(=O)CCl)c(C)n1Cc1ccc(F)cc1` [10-N17, 2-chloro-1-{1-[(4-fluorophenyl)methyl]-2,5-dimethyl-1H-pyrrol-3-yl}ethan-1-one] reads 6.45%; that for `Cc1cc(C(=O)CCl)c(C)n1-c1cccc(Cl)c1` [10-N18, 2-chloro-1-[1-(3-chlorophenyl)-2,5-dimethyl-1H-pyrrol-3-yl]ethan-1-one], 0.68%; that for `CCn1cc(S(=O)(=O)N2CCSSCC2)cn1` [10-N19, 5-[(1-ethyl-1H-pyrazol-4-yl)sulfonyl]-1,2,5-dithiazepane], 109%.
Under `Cc1cc(C(=O)CCl)c(C)n1-c1ccc(C(C)(C)C)cc1` [10-N20, 1-[1-(4-tert-butylphenyl)-2,5-dimethyl-1H-pyrrol-3-yl]-2-chloroethan-1-one] stands 0.606%.
